Measurements reported in PubChem BioAssay AID214 (DTP/NCI, 2004).
“And” between values parts separate entries of the source, which are not always exact repeats. Equal values may be shown once. Records with an inconclusive call do not appear.

Test system: B6C3F1 mice, colon carcinoma 38 s.c., T/C
Assay: NCI In Vivo Anticancer Drug Screen. Data for tumor model Colon Carcinoma 38 (subcutaneous) in B6C3F1 mice
Procedure: The antitumor activity of compounds was measured in mice bearing transplantable tumors. Survival or tumor size were measured and the results are expressed as the measurement made in the treated group (T) divided by the measurement made in the vehicle treated control group (C). The tumor model used in this assay is Colon Carcinoma 38 (subcutaneous) in B6C3F1 mice

[1] = endpoint: median tumor weight (est.), dose: 100.0 mg/kg/injection, schedule: Q07DX002 (ip), vehicle: Klucel (hydroxypropylcellulose) (HPC), higher = larger tumour

`CCN(CC)CCOC(=O)Cc1cccc2c(=O)cc(-c3ccccc3)oc12` was tested, and the T/C (endpoint: median survival time, dose: 3.12 mg/kg/injection, schedule: Q01DX001 (iv), vehicle: saline, higher = longer survival) was 101 % of control, the T/C (endpoint: median survival time, dose: 3.12 mg/kg/injection, schedule: Q07DX002 (iv), vehicle: saline, higher = longer survival) was 102 % of control and the T/C (endpoint: median survival time, dose: 6.25 mg/kg/injection, schedule: Q01DX001 (iv), vehicle: saline, higher = longer survival) was 102 % of control. For the same molecule, the T/C (endpoint: median survival time, dose: 6.25 mg/kg/injection, schedule: Q07DX002 (iv), vehicle: saline, higher = longer survival) was 106 % of control, the T/C (endpoint: median survival time, dose: 15.82 mg/kg/injection, schedule: Q07DX002 (iv), vehicle: saline, higher = longer survival) was 92 % of control and the T/C (endpoint: median survival time, dose: 21.09 mg/kg/injection, schedule: Q01DX001 (iv), vehicle: saline, higher = longer survival) was 101 % of control. For the same molecule, the T/C (endpoint: median survival time, dose: 21.09 mg/kg/injection, schedule: Q07DX002 (iv), vehicle: saline, higher = longer survival) was 96 % of control, the T/C (endpoint: median survival time, dose: 25.0 mg/kg/injection, schedule: Q07DX002 (iv), vehicle: saline, higher = longer survival) was 87 % of control and the T/C (endpoint: median survival time, dose: 28.13 mg/kg/injection, schedule: Q01DX001 (iv), vehicle: saline, higher = longer survival) was 100 % of control. The T/C (endpoint: median survival time, dose: 28.13 mg/kg/injection, schedule: Q07DX002 (iv), vehicle: saline, higher = longer survival) was 121 % of control, the T/C (endpoint: median survival time, dose: 37.5 mg/kg/injection, schedule: Q01DX001 (iv), vehicle: saline, higher = longer survival) was 92 % of control and the T/C (endpoint: median survival time, dose: 37.5 mg/kg/injection, schedule: Q07DX002 (iv), vehicle: saline, higher = longer survival) was 110 % of control. For the same molecule, the T/C (endpoint: median survival time, dose: 50.0 mg/kg/injection, schedule: Q01DX001 (iv), vehicle: saline, higher = longer survival) was 96 % of control, the T/C (endpoint: median survival time, dose: 112.5 mg/kg/injection, schedule: Q01DX001 (ip), vehicle: saline, higher = longer survival) was 89 % of control and the T/C (endpoint: median survival time, dose: 112.5 mg/kg/injection, schedule: Q07DX002 (ip), vehicle: saline, higher = longer survival) was 90 % of control and 120 % of control. The T/C (endpoint: median survival time, dose: 150.0 mg/kg/injection, schedule: Q01DX001 (ip), vehicle: saline, higher = longer survival) was 96 % of control and 99 % of control, the T/C (endpoint: median survival time, dose: 150.0 mg/kg/injection, schedule: Q07DX002 (ip), vehicle: saline, higher = longer survival) was 167 % of control and 218 % of control and the T/C (endpoint: median survival time, dose: 200.0 mg/kg/injection, schedule: Q07DX002 (ip), vehicle: saline, higher = longer survival) was 220 % of control and 238 % of control. The T/C (endpoint: median survival time, dose: 266.7 mg/kg/injection, schedule: Q01DX001 (ip), vehicle: saline, higher = longer survival) was 171 % of control and 176 % of control, the T/C (endpoint: median survival time, dose: 266.7 mg/kg/injection, schedule: Q07DX002 (ip), vehicle: saline, higher = longer survival) was 220 % of control and 238 % of control and the T/C (endpoint: median survival time, dose: 355.6 mg/kg/injection, schedule: Q01DX001 (ip), vehicle: saline, higher = longer survival) was 220 % of control and 232 % of control. For the same molecule, the T/C (endpoint: median tumor weight (est.), dose: 21.09 mg/kg/injection, schedule: Q07DX002 (iv), vehicle: saline, higher = larger tumour) was 86 % of control, the T/C (endpoint: median tumor weight (est.), dose: 26.7 mg/kg/injection, schedule: Q03HX024 (ip), vehicle: saline, higher = larger tumour) was 115 % of control and the T/C (endpoint: median tumor weight (est.), dose: 28.13 mg/kg/injection, schedule: Q01DX001 (iv), vehicle: saline, higher = larger tumour) was 77 % of control and 89 % of control. The T/C (endpoint: median tumor weight (est.), dose: 35.6 mg/kg/injection, schedule: Q03HX024 (ip), vehicle: saline, higher = larger tumour) was 155 % of control, the T/C (endpoint: median tumor weight (est.), dose: 35.6 mg/kg/injection, schedule: Q06HX016 (ip), vehicle: saline, higher = larger tumour) was 86 % of control and the T/C (endpoint: median tumor weight (est.), dose: 37.5 mg/kg/injection, schedule: Q01DX001 (iv), vehicle: saline, higher = larger tumour) was 107 % of control. The T/C (endpoint: median tumor weight (est.), dose: 47.5 mg/kg/injection, schedule: Q01DX008 (ip), vehicle: saline, higher = larger tumour) was 79 % of control, the T/C (endpoint: median tumor weight (est.), dose: 47.5 mg/kg/injection, schedule: Q03HX006 (ip), vehicle: saline, higher = larger tumour) was 117 % of control and the T/C (endpoint: median tumor weight (est.), dose: 47.5 mg/kg/injection, schedule: Q03HX024 (ip), vehicle: saline, higher = larger tumour) was 83 % of control. The T/C (endpoint: median tumor weight (est.), dose: 47.5 mg/kg/injection, schedule: Q06HX016 (ip), vehicle: saline, higher = larger tumour) was 75 % of control, the T/C (endpoint: median tumor weight (est.), dose: 50.0 mg/kg/injection, schedule: Q01DX001 (iv), vehicle: saline, higher = larger tumour) was 50 % of control and the T/C (endpoint: median tumor weight (est.), dose: 63.3 mg/kg/injection, schedule: Q03HX006 (ip), vehicle: saline, higher = larger tumour) was 63 % of control. The T/C (endpoint: median tumor weight (est.), dose: 63.3 mg/kg/injection, schedule: Q06HX016 (ip), vehicle: saline, higher = larger tumour) was 93 % of control, the T/C (endpoint: median tumor weight (est.), dose: 84.4 mg/kg/injection, schedule: Q01DX008 (ip), vehicle: saline, higher = larger tumour) was 111 % of control and the T/C (endpoint: median tumor weight (est.), dose: 84.4 mg/kg/injection, schedule: Q03HX006 (ip), vehicle: saline, higher = larger tumour) was 63 % of control. The T/C (endpoint: median tumor weight (est.), dose: 84.4 mg/kg/injection, schedule: Q06HX004 (ip), vehicle: saline, higher = larger tumour) was 75 % of control, the T/C (endpoint: median tumor weight (est.), dose: 84.4 mg/kg/injection, schedule: Q06HX016 (ip), vehicle: saline, higher = larger tumour) was 63 % of control and the T/C (endpoint: median tumor weight (est.), dose: 84.4 mg/kg/injection, schedule: Q07DX002 (ip), vehicle: saline, higher = larger tumour) was 60 % of control. The T/C (endpoint: median tumor weight (est.), dose: 112.5 mg/kg/injection, schedule: Q01DX008 (ip), vehicle: saline, higher = larger tumour) was 73 % of control, the T/C (endpoint: median tumor weight (est.), dose: 112.5 mg/kg/injection, schedule: Q03HX006 (ip), vehicle: saline, higher = larger tumour) was 18 % of control and the T/C (endpoint: median tumor weight (est.), dose: 112.5 mg/kg/injection, schedule: Q06HX004 (ip), vehicle: saline, higher = larger tumour) was 60 % of control. The T/C (endpoint: median tumor weight (est.), dose: 150.0 mg/kg/injection, schedule: Q06HX004 (ip), vehicle: saline, higher = larger tumour) was 54 % of control, the T/C (endpoint: median tumor weight (est.), dose: 200.0 mg/kg/injection, schedule: Q01DX001 (ip), vehicle: saline, higher = larger tumour) was 20 % of control and 22 % of control and the T/C (endpoint: median tumor weight (est.), dose: 200.0 mg/kg/injection, schedule: Q06HX004 (ip), vehicle: saline, higher = larger tumour) was 9 % of control. The T/C (endpoint: median tumor weight (est.), dose: 200.0 mg/kg/injection, schedule: Q07DX002 (ip), vehicle: saline, higher = larger tumour) was 4 % of control and 9 % of control and the T/C (endpoint: median tumor weight (est.), dose: 266.7 mg/kg/injection, schedule: Q01DX001 (ip), vehicle: saline, higher = larger tumour) was 7 % of control and 13 % of control.
In the case of `C=C(Cl)C(=NC(C)(C)C)Nc1ccccc1C`, the T/C [1] is reported as 88 % of control.
With `CCCCCc1cc(O)c2c(c1)OC(C)(C)[C@@H]1CCC(C)=C[C@@H]21` the T/C (endpoint: median tumor weight (est.), dose: 200.0 mg/kg/injection, schedule: Q07DX002 (ip), vehicle: other, higher = larger tumour) was 81 % of control and the T/C (endpoint: median tumor weight (est.), dose: 400.0 mg/kg/injection, schedule: Q07DX002 (ip), vehicle: other, higher = larger tumour) was 98 % of control.
In the case of `N[C@@H](Cc1ccc(N(CCCl)CCCl)cc1)C(=O)O`, the T/C (endpoint: median tumor weight (est.), dose: 1.2 mg/kg/injection, schedule: Q01DX006 (ip), vehicle: saline, higher = larger tumour) is reported as 35 % of control, the T/C (endpoint: median tumor weight (est.), dose: 1.8 mg/kg/injection, schedule: Q01DX006 (ip), vehicle: saline, higher = larger tumour) is reported as 62 % of control and the T/C (endpoint: median tumor weight (est.), dose: 2.7 mg/kg/injection, schedule: Q01DX006 (ip), vehicle: saline, higher = larger tumour) is reported as 38 % of control. For the same molecule, the T/C (endpoint: median tumor weight (est.), dose: 4.0 mg/kg/injection, schedule: Q01DX006 (ip), vehicle: saline, higher = larger tumour) was 50 % of control.
In the case of `CSCS(=O)C[C@H](CO)NC(=O)/C=C/c1c(C)[nH]c(=O)[nH]c1=O` (stereo partly drawn), the T/C (endpoint: median tumor weight (est.), dose: 2.0 mg/kg/injection, schedule: Q07DX002 (ip), vehicle: saline, higher = larger tumour) is reported as 74 % of control and the T/C (endpoint: median tumor weight (est.), dose: 4.0 mg/kg/injection, schedule: Q07DX002 (ip), vehicle: saline, higher = larger tumour) is reported as 66 % of control.
For `CC(CN1CC(=O)NC(=O)C1)N1CC(=O)NC(=O)C1` (stereo not drawn), the T/C [1] was 82 % of control, the T/C (endpoint: median tumor weight (est.), dose: 200.0 mg/kg/injection, schedule: Q07DX002 (ip), vehicle: Klucel (hydroxypropylcellulose) (HPC), higher = larger tumour) was 40 % of control and the T/C (endpoint: median tumor weight (est.), dose: 400.0 mg/kg/injection, schedule: Q07DX002 (ip), vehicle: Klucel (hydroxypropylcellulose) (HPC), higher = larger tumour) was 2 % of control. For the same molecule, the T/C (endpoint: median tumor weight (est.), dose: 800.0 mg/kg/injection, schedule: Q07DX002 (ip), vehicle: Klucel (hydroxypropylcellulose) (HPC), higher = larger tumour) was 1 % of control.
With `BrCCC1(CCBr)CCCCC1` the T/C (endpoint: median tumor weight (est.), dose: 100.0 mg/kg/injection, schedule: Q07DX002 (ip), vehicle: water, higher = larger tumour) was 112 % of control, the T/C (endpoint: median tumor weight (est.), dose: 200.0 mg/kg/injection, schedule: Q07DX002 (ip), vehicle: water, higher = larger tumour) was 177 % of control and the T/C (endpoint: median tumor weight (est.), dose: 400.0 mg/kg/injection, schedule: Q07DX002 (ip), vehicle: water, higher = larger tumour) was 95 % of control. The T/C (endpoint: median tumor weight (est.), dose: 800.0 mg/kg/injection, schedule: Q07DX002 (ip), vehicle: water, higher = larger tumour) was 117 % of control and the T/C (endpoint: median tumor weight (est.), dose: 1600.0 mg/kg/injection, schedule: Q07DX002 (ip), vehicle: water, higher = larger tumour) was 90 % of control.
`Nc1ccc2ccc(NS(=O)(=O)N3CCCCC3)cc2c1` was tested, and the T/C (endpoint: median tumor weight (est.), dose: 50.0 mg/kg/injection, schedule: Q07DX002 (ip), vehicle: saline with Tween-80, higher = larger tumour) was 108 % of control, the T/C (endpoint: median tumor weight (est.), dose: 200.0 mg/kg/injection, schedule: Q07DX002 (ip), vehicle: saline with Tween-80, higher = larger tumour) was 39 % of control and the T/C (endpoint: median tumor weight (est.), dose: 400.0 mg/kg/injection, schedule: Q07DX002 (ip), vehicle: saline with Tween-80, higher = larger tumour) was 15 % of control.
In the case of `CC(=O)OC1C(O)C(C)OC(OC2C(OC(=O)C3CCC4C(C3)OC3(CC(OC(=O)/C=C/c5ccccc5)C(C)CO3)C43CO3)OC(C)C(O)C2OC(C)=O)C1O` (stereo not drawn), the T/C (endpoint: median tumor weight (est.), dose: 3.75 mg/kg/injection, schedule: Q07DX002 (ip), vehicle: distilled water + Tween-80, higher = larger tumour) is reported as 93 % of control, the T/C (endpoint: median tumor weight (est.), dose: 7.5 mg/kg/injection, schedule: Q07DX002 (ip), vehicle: distilled water + Tween-80, higher = larger tumour) is reported as 95 % of control and the T/C (endpoint: median tumor weight (est.), dose: 15.0 mg/kg/injection, schedule: Q07DX002 (ip), vehicle: distilled water + Tween-80, higher = larger tumour) is reported as 64 % of control. For the same molecule, the T/C (endpoint: median tumor weight (est.), dose: 30.0 mg/kg/injection, schedule: Q07DX002 (ip), vehicle: distilled water + Tween-80, higher = larger tumour) was 168 % of control and the T/C (endpoint: median tumor weight (est.), dose: 60.0 mg/kg/injection, schedule: Q07DX002 (ip), vehicle: distilled water + Tween-80, higher = larger tumour) was 168 % of control.
